The text below walks through data of PMC5663395, “Chemical Validation of Methionyl-tRNA Synthetase as a Druggable Target in Leishmania donovani” (ACS Infectious Diseases, 2017).

In assay [1] the test system is L. donovani axenic amastigotes. Description: Leishmania axenic amastigote viability assay. It is filed as cell-based, Leishmania donovani. As to conditions: Leishmania donovani; Table 1; read-out: Leishmania Axenic Amastigote EC50. On the procedure:
carried out as described above using 5%, 10% and 20% FBS in the media. To examine the effect of the methionine concentration on the potency of DDD806905 parasites were grown in the presence of drug and in the presence (or absence) of 20-fold excess methionine (0.3 g/l). IC50 curve fitting was undertaken in GraFit version 6.0 (Erithacus Software) using a four-parameter logistic dose-response curve (equation 6), with s the slope.
Leishmania Axenic Amastigote Assay
The Leishmania axenic amastigote assay was performed using the method published in Nühs et al 15.
Leishmania Intracellular Amastigote Assay
The intramacrophage Leishmania assay was performed using a modified version of the method described in De Rycker et al 16. […]
amphotericin B was included. Controls were as follows: columns 11 and 12: DMSO, columns 23 and 24: amphotericin B (final concentration 2 µM). 350 nl of compound was pre-dispensed into 384-well sterile intermediary plates. To the intermediary plates, 35 µl of THP-1 media was added and plates were shaken for >5 min to ensure complete mixing. THP-1 cells (8,000 per well, 50 µl) were plated into black clear-bottom 384-well plates (Corning) in presence of 20 nM phorbol 12-myristate 13- […]
in a humidified incubator for 75 h. The cells were then washed with 450 µl sterile phosphate buffered saline (PBS) supplemented with 1 mM CaCl2, 0.5 mM MgCl2, 0.1% (w/v) bovine serum albumin (PBS-A) and amastigotes were added to all wells at a multiplicity of infection of 5 (40,000 amastigotes per well). After 40 min at room temperature, plates were returned to the incubator.
Amastigotes were incubated in the presence of THP-1 macrophages for 16 h. Any remaining extracellular amastigotes were subsequently removed by washing with PBS-A followed by addition of 25 µl of the compound pre-dilutions using an Ipette-pro pipetting station (FluidX). The final dilution of each compound was 200-fold. Plates were incubated for 96 h and then washed (250 µl PBS-A) and fixed (4 % (v/v) formaldehyde-PBS, 30 min, room temperature). After fixation, the wells were washed with 250 µl PBS, stained (10 µg/ml DAPI, 0.4 µg/mL HCS Cellmask Deep Red in PBS + 0.1% (v/v) Triton X-100, 30 min, room temperature) and washed with 250 µl PBS. Finally, PBS + 0.05% (v/v) thimerosal was added to the wells, the plates were sealed and imaged on a high-content microscope (GE IN Cell 2000) using a 10x objective. Image analysis was carried out with GE IN Cell Analyzer 1000 Workstation using the “Multi Target Analysis” module. For each well, i) THP-1 cell count (cytotoxicity readout) and ii) average number of amastigotes per cell (potency readout) were […]

Assay [2] has as its system THP-1 lysosomes. Put plainly: Lysosomotropism assay (LysoTracker Red competition). As to conditions: PMA-differentiated THP-1 cells, 30 min. It is filed as cell-based, human. On the procedure:
calculated, both in terms of pEC50 values. MIC (minimum inhibitory concentration) values are defined as the lowest concentration tested at which maximal inhibition is reached.
THP-1 cells were differentiated in 96-well plates with PMA as described above. Following differentiation the cells were treated for 30 min with dose-response curves of test compounds in presence of 100 nM LysoTracker Red DND-99 (Thermo Fisher) and 5 µg/ml Hoechst 33342. Next cells were washed 3 times with Hanks Buffered Saline Solution (Gibco) and imaged on a Perkin Elmer Operetta system. An image analysis algorithm to measure mean Lysotracker Red DND-99 intensity per cell was developed in Columbus. Mean Intensity was normalised using a no dye control (100% effect) and DMSO treated wells stained with Lysotracker Red DND-99 (0% effect control). Dose-response curves were fitted for the test compounds using a four-parameter equation (equation 5 above) and constrained to 0 and 100% where necessary.
To measure the pKa of DDD806905, a fast UV-metric method was performed using a Sirius T3 instrument (Sirius Analytical, U.K.). The calculation of the pKa was determined using the Sirius T3 refine software (Sirius Analytical, U.K.). In brief, the UV-metric pKa method is based on measuring pH during an acid-base titration and monitoring UV absorbance shift. The ionisation curve (Bjerrum curve) was then used to determine the pH where exactly 50 % of neutral and 50 % of ionised species was present. DDD806905 must be fully dissolved throughout the titration and so the titration is set to start at the pH where DDD806905 is in its fully ionised state. The appearance of precipitate was monitored throughout the experiment by a turbidity sensing device. […] The pKas of DDD806905 was determined at the pH where there was maximal change in UV absorbance with respect to pH. […]
LogD7.4 values were quantified using a Sirius T3 instrument (Sirius Analytical, U.K.). […] The instrument software calculated the pH of each data point using mass and charge balance equations and then fitted this theoretical data to the experimental data. […]

In assay [3] the target is LdMetRS (Leishmania donovani, UniProt A0A3Q8IBX2). Description: LdMetRS biochemical enzyme assay (BIOMOL Green). To be noted: Table 1; read-out: LdMetRS IC50. On the procedure:
LdMetRS Assay Development and Kinetic Parameter Determinations
Activity of the LdMetRS enzyme was determined by monitoring levels of pyrophosphate released during the first step of the enzymatic reaction. The pyrophosphate formed was converted to two inorganic phosphate molecules using a pyrophosphatase enzyme and levels of the resulting phosphate molecules measured using the BIOMOL® Green reagent (Enzo Life Sciences) 2.
Following optimization of the assay buffer and determination of the enzyme linearity, 384-well plate based assays were carried out at room temperature in a 50 μl reaction volume containing 30 mM Tris, pH 8.0, 140 mM NaCl, 30 mM KCl, 40 mM MgCl2, 0.01% (v/v) Brij-35, 1 mM DTT, 1 U/ml pyrophosphatase, 50 nM recombinant LdMetRS, and varying concentrations of substrates. Michaelis constants for the ATP and methionine substrates were determined in an end point assay using the above buffer and enzyme conditions. Data were fitted to the modified Michaelis-Menten equations […]
Equation 1 (Hill equation): […]
Equation 2 (High substrate inhibition Michaelis-Menten equation): […]
LdMetRS Inhibitor Studies
All test compounds were solubilized in 100% DMSO to a concentration of 10 mM. To generate IC50 data for the compounds, assay ready plates containing 10-point inhibitor curves (half-log serial dilutions) were prepared using an Echo® 550 (Labcyte).
Following preparation of the inhibitor curves, assays were carried out at room temperature in clear, flat bottom, polystyrene, 384-well plates (Greiner). Each assay was performed in a 50 μl reaction volume containing 30 mM Tris; pH 8.0, 140 mM NaCl, 30 mM KCl, 40 mM MgCl2, 0.01% (v/v) Brij-35, 1 mM DTT, 1 U/ml pyrophosphatase, 50 nM recombinant LdMetRS, 50 µM methionine and 100 µM […]
Assays were performed by adding 25 μl buffer with enzyme to assay plates (with buffer only added to ‘no enzyme’ control wells) before the reaction was initiated with the addition of a 25 μl mix containing methionine, ATP and pyrophosphatase to all wells. Following a 120 min reaction at room temperature the assay was stopped with the addition of 50 μl BIOMOL® Green. The BIOMOL® Green signal was allowed to develop for 30 min before the absorbance of each well was read at 650 nm using an EnVision multilabel plate reader (PerkinElmer Life Sciences). All liquid dispensing steps were carried out using a Thermo Scientific WellMate dispenser (Matrix).
ActivityBase from IDBS (version 8.0.5.4) was used for data processing and analysis. All IC50 curve fitting was undertaken using ActivityBase XE (version 7.7.1) from IDBS. A four-parameter logistic dose-response curve was utilized with prefit used for all four parameters.
For DDD806905 Kiapp determinations, data fitting to the Morrison equation (equation 3) was carried out using GraFit v6.0 (Erithacus Software). It should be noted that data for fitting to the Morrison equation was normalised to a ‘100 µM DDD806905’ control rather than a ‘no enzyme’ control as […]
Equation 3 (Morrison equation): […]
vi = K1 −−([ ] [ ]ET+IT+Ki)−([ ] [ ]ET+IT+i)[ ] [ ]TIE4T
LdMetRS Mode of Inhibition Studies
To establish the mode of inhibition of DDD806905, data sets (generated using the BIOMOL® Green assay platform previously described) were collected by varying both the inhibitor and substrate concentrations. Using GraFit v6.0 (Erithacus Software) each data set was individually fitted to the Michaelis-Menten equation or the modified high substrate inhibition Michaelis-Menten equation described above (equation 2), and the resulting Lineweaver-Burk plots were examined for diagnostic […]
Data sets were then globally fitted to the appropriate model (with equations 4 and 5 used for […]
If more than one model appeared possible, then data were fitted to both and examined for significance using the F-test function in GraFit.

Assay [4] concerns Leishmania donovani liver parasite burden. Put plainly: Mouse visceral leishmaniasis efficacy model. As to conditions: 30 mg/kg oral once daily for 10 days.

Chain of LdMetRS (A0A3Q8IBX2 entry or part of it): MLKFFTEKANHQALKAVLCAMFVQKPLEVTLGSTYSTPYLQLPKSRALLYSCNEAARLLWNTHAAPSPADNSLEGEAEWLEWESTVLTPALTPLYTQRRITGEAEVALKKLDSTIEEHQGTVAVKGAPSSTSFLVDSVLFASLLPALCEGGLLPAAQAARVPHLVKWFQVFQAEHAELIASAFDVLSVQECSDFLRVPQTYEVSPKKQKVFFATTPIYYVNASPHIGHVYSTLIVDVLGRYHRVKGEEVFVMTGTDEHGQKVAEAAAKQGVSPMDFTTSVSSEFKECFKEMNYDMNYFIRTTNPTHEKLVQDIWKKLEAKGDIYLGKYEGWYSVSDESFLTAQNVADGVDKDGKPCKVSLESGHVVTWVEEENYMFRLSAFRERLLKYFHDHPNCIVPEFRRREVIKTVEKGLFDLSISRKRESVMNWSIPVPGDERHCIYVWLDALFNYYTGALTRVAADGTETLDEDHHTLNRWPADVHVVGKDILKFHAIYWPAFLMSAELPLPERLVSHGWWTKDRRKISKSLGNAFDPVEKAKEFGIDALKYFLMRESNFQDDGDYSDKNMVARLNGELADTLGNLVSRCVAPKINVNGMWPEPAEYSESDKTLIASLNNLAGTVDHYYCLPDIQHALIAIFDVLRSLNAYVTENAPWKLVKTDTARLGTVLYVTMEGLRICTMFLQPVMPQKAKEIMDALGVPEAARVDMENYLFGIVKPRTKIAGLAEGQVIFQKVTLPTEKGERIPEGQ

In the case of `O=c1nc(NCCCNS(=O)(=O)c2cc(Cl)cc(Cl)c2)[nH]c2ccccc12` [Compound 28], the EC50 in assay [1] turned out to be 19 µM. The “competition with lysotracker red accumulation in THP-1 lysosomes” value in assay [2] was “does not compete with lysotracker red”. Besides, in assay [3], the 50% inhibitory concentration (IC50) was determined as 1900 nM.
As for `CCCCCCCCCCCCCCCCOP(=O)([O-])OCC[N+](C)(C)C` [miltefosine, reference compound], the “reduction (knock-down) of liver parasite burden (LDU) vs vehicle” value in assay [4] came to 99.6%.
For the compound `CCN(CC)CCCC(C)Nc1ccnc2cc(Cl)ccc12` (centres unmarked) [chloroquine, reference compound], the “competition with lysotracker red accumulation in THP-1 lysosomes” value in assay [2] is “did compete with lysotracker red accumulation”.
